In data set [1] the test system is Mycobacterium tuberculosis. The class given is functional. The conditions noted are these: H37Rv 331/88, 336 h.
Data set [2] concerns Mycobacterium kansasii. In words: Antimycobacterial activity against Mycobacterium kansasii 235/80 after 7 days. The class given is functional. The conditions noted are these: 235/80, 168 h.
Data set [3] has as its system Mycobacterium kansasii. Put plainly: Potency index, ratio of p-aminosalicylic acid MIC to compound MIC for antimycobacterial activity against Mycobacterium kansasii 6509/96. The class given is functional.
For data set [4], the system named is Mycobacterium tuberculosis H37Rv. Put plainly: Inhibition of recombinant Mycobacterium tuberculosis H37Rv ICL1 expressed in Escherichia coli BL21 (DE3) cells at 10 uM using (+)-potassium Ds-threo-isocitrate as substrate by glyoxylate phenyl hydrazone formation assay relative to control.
Data set [5] relates to Mycobacterium kansasii. In words: Antimycobacterial activity against Mycobacterium kansasii 235/80 after 21 days. The class given is functional. Conditions: 235/80, 504 h.
Data set [6] has as its system Mycobacterium tuberculosis. Put plainly: Antimycobacterial activity against Mycobacterium tuberculosis H37Ra ITM-M006710 after 48 hr by resazurin dye based microdilution method. The class given is functional. The conditions noted are these: H37Ra ITM-M006710, 48 h.
Data set [7] deals with Mycobacterium kansasii. Put plainly: Antimycobacterial activity against Mycobacterium kansasii 235/80 after 14 days. The class given is functional. Conditions: 235/80, 336 h.
Data set [8] relates to Mycobacterium kansasii. In words: Antimycobacterial activity against Mycobacterium kansasii 6509/96 after 14 days. The class given is functional. The conditions noted are these: 6509/96, 336 h.
Another data set is described as follows: in vitro. The conditions noted are these: human, HepG2 cells.
For data set [9], the system named is Mycobacterium tuberculosis. The class given is functional, H37Rv 331/88. Further details: reference not given here.
Data set [10] concerns Mycobacterium avium. In words: Antimycobacterial activity against Mycobacterium avium 330/88 after 14 days. The class given is functional. The conditions noted are these: 330/88, 336 h.
The test system of another data set is Mycolicibacterium aurum. In words: Antimycobacterial activity against Mycobacterium aurum DSM 43999 after 72 hr by resazurin dye based microdilution method. The class given is functional. Conditions: DSM 43999, 72 h. (In general: Resazurin is reduced to fluorescent resorufin, in cell work by metabolically active cells.)
Data set [11] has as its system Mycobacterium kansasii. In words: Antimycobacterial activity against Mycobacterium kansasii 6509/96 after 21 days. The class given is functional. The conditions noted are these: 6509/96, 504 h.
The test system of data set [12] is Mycobacterium avium. In words: Antimycobacterial activity against Mycobacterium avium 330/88 after 21 days. The class given is functional. Conditions: 330/88, 504 h.
Data set [13] deals with Mycobacterium kansasii. Put plainly: Potency index, ratio of p-aminosalicylic acid MIC to compound MIC for antimycobacterial activity against Mycobacterium kansasii 235/80. The class given is functional.
The test system of data set [14] is HepG2. In words: Cytotoxicity against human HepG2 cells assessed as reduction in cell viability after overnight incubation by MTT assay. The class given is cell-based. (In general: Formazan colour is commonly taken as a measure of viable cells.)
In data set [15] the test system is Mycolicibacterium smegmatis. Put plainly: Antimycobacterial activity against Mycobacterium smegmatis DSM 43465 after 120 hr by resazurin dye based microdilution method. The class given is functional. The conditions noted are these: DSM 43465, 120 h.
Data set [16] concerns HepG2. In words: Cytostatic activity against human HepG2 cells preincubated for overnight in serum free medium followed by compound wash out and further incubated for 72 hrs in presence of serum by MTT assay. The class given is ADME, cell-based.
For data set [17], the system named is Mycobacterium tuberculosis. The class given is functional. Conditions: H37Rv 331/88, 504 h.
The test system of data set [18] is Mycobacterium kansasii. Put plainly: Antimycobacterial activity against Mycobacterium kansasii 6509/96 after 7 days. The class given is functional. The conditions noted are these: 6509/96, 168 h.
Data set [19] deals with Mycobacterium tuberculosis. Put plainly: Antimycobacterial activity against XDR Mycobacterium tuberculosis Praha 131 after 21 days. The class given is functional. Conditions: Praha 131, 504 h.
Data set [20] relates to Mycobacterium tuberculosis. In words: Antimycobacterial activity against XDR Mycobacterium tuberculosis Praha 131 after 14 days. The class given is functional. Conditions: Praha 131, 336 h.

SMILES strings stand for the structures. ≈ marks a conversion by molar mass, not a printed value.

Description for in vitro: Selectivity index, ratio of IC50 for human HepG2 cells to MIC for antimycobacterial activity against Mycobacterium tuberculosis H37Rv

For orientation: MIC means the lowest concentration found to suppress growth. What is called inhibition is the percentage by which the read-out fell short of the control. As usually defined, the IC50 is the concentration needed to halve the response being measured. Consider `O=C(NCc1ccccc1)Oc1ccc(Cl)cc1C(=O)Nc1ccc(F)cc1`, for which the MIC in data set [1] was determined as 8 µM (≈ 3.19 µg/mL); with Mycobacterium kansasii [2], 16 µM (≈ 6.38 µg/mL); in the data set with Mycobacterium kansasii [5], 32 µM (≈ 12.8 µg/mL); in data set [6] it was 3.12 µg/mL; against Mycobacterium kansasii [7], 32 µM (≈ 12.8 µg/mL); against Mycobacterium kansasii [8], 32 µM (≈ 12.8 µg/mL). Besides, the MIC in the data set with Mycobacterium avium [10] turned out to be 62.5 µM (≈ 24.9 µg/mL); in the data set on Mycolicibacterium aurum, 3.12 µg/mL; against Mycobacterium kansasii [11], 32 µM (≈ 12.8 µg/mL); in the data set on Mycobacterium avium [12], 62.5 µM (≈ 24.9 µg/mL); in data set [15] it was 3.12 µg/mL; in [17] it was 16 µM (≈ 6.38 µg/mL). Also, it took 16 µM (≈ 6.38 µg/mL) to inhibit growth in the data set on Mycobacterium kansasii [18] (MIC). The Ratio in the data set with Mycobacterium kansasii [3] is recorded as greater than 250; in data set [9] it was greater than 125; in the data set with Mycobacterium kansasii [13], greater than 250. Moreover, the inhibition in data set [4] is 15%. The selectivity ratio in “in vitro” was greater than 7.8. Besides, the IC50 with HepG2 [14] is greater than 125 µM; in the data set on HepG2 [16], 34.1 µM.

Regarding `O=C(NC1CCCCC1)Oc1ccc(Cl)cc1C(=O)Nc1ccc(C(F)(F)F)cc1`, the MIC was 1 µM (≈ 0.441 µg/mL) in [19]; 1 µM (≈ 0.441 µg/mL) in data set [1]; 4 µM (≈ 1.76 µg/mL) against Mycobacterium kansasii [2]; 8 µM (≈ 3.53 µg/mL) in the data set with Mycobacterium kansasii [5]; no more than 0.88 µM in data set [6]; 4 µM (≈ 1.76 µg/mL) against Mycobacterium kansasii [7]. In addition, the MIC in the data set with Mycobacterium kansasii [8] was 4 µM (≈ 1.76 µg/mL); with Mycobacterium avium [10], 8 µM (≈ 3.53 µg/mL); in [20], 0.5 µM (≈ 0.22 µg/mL); against Mycolicibacterium aurum, no more than 0.88 µM; against Mycobacterium kansasii [11], 4 µM (≈ 1.76 µg/mL); in the data set on Mycobacterium avium [12] it was 8 µM (≈ 3.53 µg/mL). The MIC in [15] is no more than 0.88 µM; in data set [17], 1 µM (≈ 0.441 µg/mL); in the data set with Mycobacterium kansasii [18] it was 2 µM (≈ 0.882 µg/mL). Besides, the results for the Ratio (in the data set on Mycobacterium kansasii [3]; in [9]; in the data set on Mycobacterium kansasii [13]) were greater than 250, greater than 125 and greater than 250, respectively. In addition, the inhibition in [4] was found to be 14%. Further, in the data set “in vitro”, the selectivity ratio was greater than 125. Further, the IC50 in the data set with HepG2 [14] was greater than 125 µM; with HepG2 [16], 0.75 µM.

As to `O=C(Nc1ccccc1)Oc1ccc(Cl)cc1C(=O)Nc1ccc(Br)cc1`, the MIC in data set [1] was determined as 8 µM (≈ 3.57 µg/mL); in the data set on Mycobacterium kansasii [2], 4 µM (≈ 1.78 µg/mL); in the data set on Mycobacterium kansasii [5], 8 µM (≈ 3.57 µg/mL); in data set [6], 1.56 µg/mL; against Mycobacterium kansasii [7], 8 µM (≈ 3.57 µg/mL); in the data set with Mycobacterium kansasii [8], 8 µM (≈ 3.57 µg/mL). The MIC was determined as 8 µM (≈ 3.57 µg/mL) in the data set on Mycobacterium avium [10]; 1.56 µg/mL with Mycolicibacterium aurum; 8 µM (≈ 3.57 µg/mL) in the data set on Mycobacterium kansasii [11]; 16 µM (≈ 7.13 µg/mL) in the data set with Mycobacterium avium [12]; 1.56 µg/mL in [15]; 16 µM (≈ 7.13 µg/mL) in data set [17]. Also, in the data set on Mycobacterium kansasii [18], the MIC is 4 µM (≈ 1.78 µg/mL). Moreover, the figures for the Ratio (in the data set on Mycobacterium kansasii [3]; in [9]; with Mycobacterium kansasii [13]) were greater than 250, greater than 125 and greater than 250, respectively. In addition, in data set [4], the inhibition is 17%. For the same compound, in the data set “in vitro”, the selectivity ratio was greater than 6.3. The IC50 in the data set on HepG2 [14] is greater than 50 µM; in the data set with HepG2 [16] it was 5.45 µM.

With `O=C(NCc1ccccc1)Oc1ccc(Cl)cc1C(=O)Nc1ccc(C(F)(F)F)cc1`, the minimum inhibitory concentration (MIC) is 2 µM (≈ 0.898 µg/mL) in data set [1]; 8 µM (≈ 3.59 µg/mL) in the data set on Mycobacterium kansasii [2]; 16 µM (≈ 7.18 µg/mL) against Mycobacterium kansasii [5]; no more than 0.87 µM in data set [6]; 16 µM (≈ 7.18 µg/mL) with Mycobacterium kansasii [7]; 16 µM (≈ 7.18 µg/mL) against Mycobacterium kansasii [8]. Also, the MIC with Mycobacterium avium [10] is 32 µM (≈ 14.4 µg/mL); in the data set with Mycolicibacterium aurum, no more than 0.87 µM; against Mycobacterium kansasii [11], 16 µM (≈ 7.18 µg/mL); in the data set on Mycobacterium avium [12], 32 µM (≈ 14.4 µg/mL); in data set [15] it was 1.74 µM; in [17], 4 µM (≈ 1.8 µg/mL). In addition, in the data set with Mycobacterium kansasii [18], it took 8 µM (≈ 3.59 µg/mL) to inhibit growth (MIC). For the same compound, the Ratio is given as greater than 250 in the data set on Mycobacterium kansasii [3], greater than 125 in [9] and greater than 250 in the data set with Mycobacterium kansasii [13]. The inhibition in [4] was found to be 14%. Also, in “in vitro”, the selectivity ratio was greater than 31.3. For the same compound, the IC50 in the data set on HepG2 [14] was greater than 125 µM; in the data set on HepG2 [16] it was 3 µM.

In the case of `O=C(Nc1ccccc1)Oc1ccc(Cl)cc1C(=O)Nc1ccc(Cl)cc1`, the MIC in data set [1] is 16 µM (≈ 6.42 µg/mL); against Mycobacterium kansasii [2], 16 µM (≈ 6.42 µg/mL); in the data set on Mycobacterium kansasii [5], 32 µM (≈ 12.8 µg/mL); in data set [6], 1.56 µg/mL; in the data set with Mycobacterium kansasii [7] it was 32 µM (≈ 12.8 µg/mL); in the data set on Mycobacterium kansasii [8], 16 µM (≈ 6.42 µg/mL). Besides, the MIC with Mycobacterium avium [10] was 16 µM (≈ 6.42 µg/mL); in the data set with Mycolicibacterium aurum it was 1.56 µg/mL; against Mycobacterium kansasii [11] it was 16 µM (≈ 6.42 µg/mL); with Mycobacterium avium [12] it was 16 µM (≈ 6.42 µg/mL); in data set [15], 1.56 µg/mL; in [17] it was 16 µM (≈ 6.42 µg/mL). Besides, the lowest concentration to inhibit growth against Mycobacterium kansasii [18] (MIC) was 8 µM (≈ 3.21 µg/mL). For the same compound, the Ratio with Mycobacterium kansasii [3] is given as greater than 250; in data set [9], greater than 125; with Mycobacterium kansasii [13], greater than 250. Also, the inhibition in data set [4] was determined as 10%. Also, the selectivity ratio in “in vitro” was greater than 15.6. For the same compound, the IC50 was greater than 250 µM in the data set on HepG2 [14] and 0.9 µM with HepG2 [16].

Values taken from ChEMBL document CHEMBL4406824, “Phenolic N-monosubstituted carbamates: Antitubercular and toxicity evaluation of multi-targeting compounds” (Eur J Med Chem, 2019).
